{"source": "patent US11999737B2", "about": "“Kinase inhibitors and related methods of use” (Duke University, priority 2014, dated 2024)", "key": {"[1]": {"tested_on": "RLC20 phosphorylation", "assay": "RLC20 phosphorylation in serum-starved aortic smooth muscle cells", "type": "cell-based, mouse", "conditions": "30 min", "description": "(§1) A, Typical myograph force trace showing the effect of HS38 on intact mouse aorta contractility. The maximum contractile force of PE-induced contraction was reduced by approximately 30% when HS38 (10 μM) was added five minutes prior to PE addition and by approximately 40% when added ten minutes after PE addition. B, Serum-starved aortic SM cells were treated with SIP (0.25 μM) and HS-38 (±50 μM) for 30 min.\nFor Western blots, tissues and cultured cells were lysed in 1% SDS, NaCl (300 mM), Tris-HCl (50 mM, pH 7.5), subjected to SDS-PAGE, transferred to polyvinylidene difluoride membrane (Millipore) and visualized using the Odyssey System (Li-Cor). For Odyssey imaging, the membranes were blocked with Odyssey Blocking Buffer and then subjected to anti-MYPT1 (1:2,000) (BD Transduction), phospho-MYPT1 (Thr696) (1:1,000) (Millipore), RLC20 (1:2000) (Sigma) and phospho-RLC20 (1:1000) (Cell Signaling Technology) antibodies. Antibodies were diluted in appropriate blocking buffer. The membranes were washed in TBS with 0.05% Tween 20. Primary antibodies were visualized using secondary antibodies conjugated to Alexa 680 (Invitrogen) or IRDye800 (Li-Cor).\nCell Culture: Mouse aortic SM cells were prepared. The cell line was cultured in AmnioMax medium (Gibco) supplemented with 10% embryonic stem cell-qualified fetal bovine serum (Invitrogen) and penicillin-streptomycin (Invitrogen). […]"}, "[2]": {"biological_target": "ROK2 (Rattus norvegicus, UniProt Q62868)", "sequence (Q62868 2-543)": "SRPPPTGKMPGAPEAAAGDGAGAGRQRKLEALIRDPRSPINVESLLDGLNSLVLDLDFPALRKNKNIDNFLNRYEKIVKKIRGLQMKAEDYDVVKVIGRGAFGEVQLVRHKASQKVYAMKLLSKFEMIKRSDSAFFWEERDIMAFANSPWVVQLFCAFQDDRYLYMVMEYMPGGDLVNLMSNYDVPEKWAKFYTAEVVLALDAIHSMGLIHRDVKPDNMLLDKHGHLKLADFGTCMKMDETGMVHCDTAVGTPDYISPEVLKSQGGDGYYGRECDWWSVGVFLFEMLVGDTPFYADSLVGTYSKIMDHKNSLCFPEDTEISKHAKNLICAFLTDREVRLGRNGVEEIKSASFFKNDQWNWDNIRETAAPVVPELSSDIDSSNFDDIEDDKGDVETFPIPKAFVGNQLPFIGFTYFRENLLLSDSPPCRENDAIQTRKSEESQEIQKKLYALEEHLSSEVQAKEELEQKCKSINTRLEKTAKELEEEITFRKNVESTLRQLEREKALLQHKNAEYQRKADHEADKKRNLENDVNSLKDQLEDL", "assay": "33P-ATP filter-binding kinase assay"}, "[3]": {"tested_on": "MYPT1 Thr696 phosphorylation", "assay": "Western blot of MYPT1 Thr696 phosphorylation in Ca2+-sensitized rabbit ileum", "conditions": "HS38 50 μM", "description": "To examine the effect of ZIPK inhibition on sensitized force, muscle strips were stimulated with an intermediate calcium concentration solution (pCa 6.5). Once force reached a plateau, strips were Ca^2+-sensitized by the addition of the agonist carbachol (5 μM). Up to 2 μM of GTP was added together with the sensitizing agonist to compensate for possible loss of GTP during permeabilization. At the plateau of Ca-sensitized force (5-10 min upon stimulation), the ZIPK inhibitor, HS38 (50 μM) or diluent (0.1% DMSO) was added and the force relaxation time course was recorded. Tissue samples were frozen 20 min after the addition of HS38 for biochemical assays of RLC20 and MYPT1 phosphorylation.\nMYPT1 and RLC20 phosphorylation: To examine the phosphorylation of MYPT1 and RLC20, rabbit ileum SM strips were treated as described above and previously reported. (Gong et al. (1995), J. Physiol.-London 486, 113-122; Kitazawa et al. (1989) J. Biol. Chem. 264, 5339-5342; Kobayashi et al. (1991) Am. J. Physiol. 260, C364-C370), Following the stimulation protocols, muscle strips were immediately frozen by immersion in −80° C. acetone with trichloroacetic acid (10% w/v) and stored at −80° C. […] Phosphorylation of MYPT1 Thr696 and of RLC20 was determined by SDS-PAGE and Western blotting. […]"}, "[4]": {"tested_on": "intact mouse aorta", "assay": "Phenylephrine-induced contractile force of intact mouse aorta (myograph)", "description": "as §1\nTissue Preparation and Force Measurements. All protocols and procedures for tissue harvest were carried out according to protocols approved by the Animal Care and Use Committees at the University of Virginia and Duke University, Helical strips of mouse aorta or strips of rabbit ileum were dissected, (˜400 μm wide, 2 mm long) and mounted between two tungsten hooks on a bubble plate for force measurements (Horiuti (1988) J. Physiol.-London 398, 131-148). […] Intact strips of mouse abdominal aorta were challenged with phenylephrine following pretreatment with HS38 or diluent, DMSO or HS38 and DMSO were added after maximal phenylephrine-induced force was achieved and force output measured. […] For Ca^2+ activating solutions, EGTA (10 mM) and a calculated amount of Ca-methanesulfonate was added to give the desired free Ca^2+ concentration ((Horiuti (1988) J. Physiol.-London 398, 131-148)."}, "[5]": {"biological_target": "T1, IRAK4 (Homo sapiens, UniProt Q9NWZ3)", "T1 sequence (Q9NWZ3 1-460)": "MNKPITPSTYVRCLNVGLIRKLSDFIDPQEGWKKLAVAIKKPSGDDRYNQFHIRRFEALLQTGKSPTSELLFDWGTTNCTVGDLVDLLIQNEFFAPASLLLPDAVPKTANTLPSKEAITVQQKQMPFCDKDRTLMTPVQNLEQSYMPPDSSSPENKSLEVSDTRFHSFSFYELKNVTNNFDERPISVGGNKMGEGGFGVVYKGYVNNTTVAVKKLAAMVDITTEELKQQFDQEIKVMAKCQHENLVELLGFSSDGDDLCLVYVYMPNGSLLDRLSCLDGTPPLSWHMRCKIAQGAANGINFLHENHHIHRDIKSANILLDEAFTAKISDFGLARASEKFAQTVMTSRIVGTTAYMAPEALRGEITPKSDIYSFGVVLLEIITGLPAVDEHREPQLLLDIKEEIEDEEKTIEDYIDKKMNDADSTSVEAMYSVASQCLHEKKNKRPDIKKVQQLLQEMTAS", "assay": "33P-ATP filter-binding kinase assay"}, "[6]": {"conditions": "read-out: % Activity (10 μM HS38)"}}}
{"smiles": "CC(Sc1nc2c(cnn2-c2cccc(Cl)c2)c(=O)[nH]1)C(N)=O", "note": "(stereo not shown) [HS38]", "values": [{"measurement": "RLC20 phosphorylation, basal (unstimulated) state", "setting": "[1]; 50 μM, p <0.0002, n=8", "result": "significantly decreased"}, {"measurement": "RLC20 phosphorylation, S1P stimulated state", "setting": "[1]; S1P 0.25 μM, HS38 50 μM, p <0.004, n=8", "result": "significantly decreased"}, {"measurement": "activity against ROK2", "setting": "[2]", "result": "completely inactive"}, {"measurement": "activity at 10 µM", "setting": "[2]; [6]", "result": 91, "unit": "%"}, {"measurement": "MYPT1 Thr696 phosphorylation level", "setting": "[3]", "result": "significantly reduced"}, {"measurement": "reduction of maximum contractile force of PE-induced contraction", "setting": "[4]; HS38 10 μM added five minutes prior to PE addition", "result": "approximately 30%"}, {"measurement": "reduction of maximum contractile force of PE-induced contraction", "setting": "[4]; HS38 10 μM added ten minutes after PE addition", "result": "approximately 40%"}, {"measurement": "fold less potent than against DAPK1 and PIM3", "setting": "[5]", "result": "~10", "unit": "fold"}, {"measurement": "IC50", "setting": "[5]; mean ± S.D., n = 2", "result": "1400 ± 400", "unit": "nM"}, {"measurement": "activity at 10 µM", "setting": "[5]; [6]", "result": 20, "unit": "%"}]}
